Results as given in US7977481B2, “Pyrimidinyl-thiophene kinase modulators” (SGX Pharmaceuticals, Inc., priority 2005, dated 2011).
pIC50: −log10 of the molar value.

Legend:
HCT116 cells = assay: 96-well XTT cell survival assay (AurA XTT); type: cell-based; conditions: Homo sapiens, HCT-116, 72 hours
Procedure: HCT116 cells were maintained in McCoy's 5a Medium supplemented with 10% fetal bovine serum (FBS) 2 mM L-Glutamine and 100 units penicillin/100 μg streptomycin, at 37° C. in 5% CO2
Compounds were tested in the following assays in duplicate.
96-well XTT assay: Cells were grown in growth media containing various concentrations of compounds (duplicates) on a 96-well flat bottom plate for 72 hours at 37° C. in 5% CO2. The starting cell number was 5000 cells per well and volume was 120 μl. At the end of the 72-hour incubation, 40 μl of XTT labeling mixture (50:1 solution of sodium 3′-[1-(phenylaminocarbonyl)-3,4-tetrazolium]-bis(4-methoxy-6-nitro) benzene sulfonic acid hydrate and Electron-coupling reagent: PMS (N-methyl dibenzopyrazine methyl sulfate) were added to each well of the plate. After an additional 2-6 hours […] with a spectrophotometer.

JAK2 KD kinase = molecular target: T1, JAK2 KD kinase (Homo sapiens, UniProt O60674); assay: JAK2 Luminescence-Based ATP Depletion Enzyme Assay (JAK2-WT); type: biochemical; conditions: 10 μM ATP
T1 construct: JAK2 KD (kinase domain); inferred from Ni-NTA capture and imidazole elution; made in house; host or cells: Sf9 insect cells
Procedure: JAK2 Luminescence-Based ATP Depletion Enzyme Assay
Materials: JAK3tide peptide substrate=GGEEEEYFELVKKKK (Biopeptide, San Diego, Calif.), ATP (Sigma Cat#A-3377, FW=551), HEPES buffer, pH 7.6, 10% Brij 35 (Calbiochem Cat#203728), MgCl2, Staurosporine (Streptomyces sp. Sigma Cat#85660-1MG), white Corning (Costar) 384-well flat bottom plate (VWR Cat#29444-088), JAK2 KD (kinase domain) or JAK2 JH1JH2 V617F kinase (see below), Kinase-Glo™ (Promega Cat#V6712).
Stock Solutions: 5 mM JAK3tide peptide (9.86 mg/ml in 100 mM HEPES, pH 7.6), stored at −20° C.; 100 mM HEPES buffer, pH 7.6, 10% Brij 35; 10 mM ATP (5.51 mg/ml in 100 mM HEPES, pH 7.6) stored at −20° C. (diluted 50 μl into total of 10 ml 100 mM HEPES, pH 7.6, daily=50 μM ATP working stock); 100 mM MgCl2; 200 μM Staurosporine, 2× Kinase-Glo™ reagent (made fresh or stored at −20° C.).
Standard Assay Conditions for 384-well format (20 μl kinase reaction, 40 μl detection reaction): 10 mM MgCl2; 0.1 mM JAK3tide peptide (or, 0.5 mM JAK3tide peptide for JAK2 JH1JH2 V617F assay); 1 μl test compound (in 100% DMSO); 0.4 μg/ml JAK2 KD kinase or 12 μg/ml JAK2 JH1JH2 V617F kinase; 10 μM ATP; 100 mM HEPES+0.01% Brij, pH 7.6. Positive controls contained 5% DMSO with no test compound. Negative controls contained 10 μM staurosporine. The kinase reactions were initiated at time t=0 by the addition of ATP. Kinase reactions were incubated at 21-23° C. for 30 min, after which 20 μl of Kinase-Glo™ reagent were added to each well to quench the kinase reaction and initiate the luminescence reaction. After a 20 min incubation at 21-23° C., the luminescence was detected in a plate-reading luminometer (Tecan Ultra Evolution).
The pellet of Sf9 insect cells produced from a 6 L expression of Jak2 was resuspended in a buffer containing 50 mM Tris-HCl pH 8.5, 250 mM NaCl, 5% Glycerol, 0.2% β-octylglucoside, 5 mM β-mercaptoethanol (or with ligand added to the buffer eg. 5 mM ATP and 10 mM MgCl2; 0.05 mM compound of the invention) in a volume of approximately 40 mL per 1 L of original culture. One tablet of Roche Complete, EDTA-free protease inhibitor cocktail (Cat. #1873580) was added per 1 L of original culture. The suspension was then stirred for 1 hour at 4° C. Debris was removed by centrifugation for 30 minutes at 39,800 g at 4° C. The supernatant was decanted into a 500 mL beaker and 10 mL of 50% Qiagen Ni-NTA Agarose (Cat. #30250) pre-equilibrated in 50 mM Tris-HCl pH 8.5, 250 mM NaCl, 5% Glycerol, 0.2% β-octylglucoside, 5 mM β-mercaptoethanol was added and stirred for 30 minutes at 4° C. The sample was poured through a drip column at 4° C. and washed with 10 column volumes (CV) of 50 mM Tris-HCl pH 8.5, 250 mM NaCl, 5% Glycerol, 0.2% β-octylglucoside, 5 mM β-mercaptoethanol. The protein was eluted in 5 mL fractions using 5 CV of the same buffer containing 250-500 mM Imidazole. Fractions were pooled by SDS-PAGE analysis and the protein concentration determined by a Bradford assay. 5 mM TCEP was added to the pool and the protein sample was concentrated to ˜8 mL by centrifugation in an Amicon Ultra-15 10,000 Da MWCO centrifugal filter unit (Cat. #UFC901024). The concentrated protein was applied to a GE Healthcare HiLoad 16/60 Superdex 75 or 200 prep grade column (Cat. #17-1068-01, Cat. #17-1069-01) equilibrated in 20 mM Tris-HCl pH 8.5, 250 mM NaCl, and 1 mM DTT. Fractions were run on a SDS-PAGE gel and the cleanest fractions were pooled. The protein was concentrated to approximately 6.5-10 mg/mL. Samples in the final buffer (20 mM Tris-HCl pH 8.5, 250 mM NaCl, 1 mM DTT; [or with ligand added eg. 2 mM ATP/5 mM MgCl2 or 0.05 mM compound of the invention]) are delivered fresh to crystallization and stored at 4° C. or flash frozen in liquid nitrogen (as 120 μL aliquots) and stored at −80° C.

T1 sequence (O60674 849-1124 limits assumed): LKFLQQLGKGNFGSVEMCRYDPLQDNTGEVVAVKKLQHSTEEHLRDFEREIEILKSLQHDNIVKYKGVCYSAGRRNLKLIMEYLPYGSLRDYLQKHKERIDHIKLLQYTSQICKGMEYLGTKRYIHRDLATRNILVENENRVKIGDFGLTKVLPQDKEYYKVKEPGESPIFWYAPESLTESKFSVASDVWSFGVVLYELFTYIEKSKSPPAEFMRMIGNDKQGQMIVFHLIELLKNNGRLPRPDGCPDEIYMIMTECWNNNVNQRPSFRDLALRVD

SMILES	pIC50 (HCT116 cells)	pIC50 (JAK2 KD kinase)
CN(Cc1ccccc1)C(=O)c1ccc(-c2ccnc(Nc3ccc(CCO)cc3)n2)s1	5.30 to 6.00	> 7.00
CCN(CCC#N)C(=O)c1ccc(-c2ccnc(Nc3cccc(C(C)O)c3)n2)s1 (stereo not shown)	> 6.00	> 7.00
OC1CCN(Cc2cccc(Nc3nccc(-c4ccc(CNc5ccccc5Cl)s4)n3)c2)CC1		> 7.00
CNC(=O)c1ccc(-c2ccc(-c3ccnc(Nc4cccc(C(C)O)c4)n3)s2)cc1 (stereo not shown)		> 7.00
CC(O)c1cccc(Nc2nccc(-c3ccc(S(=O)(=O)N(C)C)s3)n2)c1 (stereo not shown)	5.30 to 6.00	> 7.00
CN(C)C1CCN(c2cccc(Nc3nccc(-c4ccc(C(=O)NCc5ccco5)s4)n3)c2)C1 (stereo not shown)		> 7.00
CCN(CCC#N)S(=O)(=O)c1ccc(-c2ccnc(Nc3cccc(C)c3)n2)s1	5.30 to 6.00	> 7.00
COc1ccc(Nc2nccc(-c3ccc(Br)s3)n2)cc1C(=O)N(C)C	5.30 to 6.00	
C[C@@H](NC(=O)c1ccc(-c2ccnc(Nc3cccc(CN4CCC(O)CC4)c3)n2)s1)c1ccccc1	> 6.00	> 7.00
C[C@@H](NC(=O)c1ccc(-c2ccnc(Nc3cccc(CN4CCN(CCO)CC4)c3)n2)s1)c1ccccc1	> 6.00	> 7.00
CC(O)c1cccc(Nc2nccc(-c3ccc(-c4cccc(CC#N)c4)s3)n2)c1 (stereo not shown)		> 7.00
CC(O)c1cccc(Nc2nccc(-c3ccc(-c4cccnc4)s3)n2)c1 (stereo not shown)	5.30 to 6.00	> 7.00
O=C(c1cccc(Nc2nccc(-c3ccc(Br)s3)n2)c1)N1CCN(CCO)CC1	5.30 to 6.00	
O=C(NCc1ccccc1)c1ccc(-c2ccnc(Nc3ccc(CCO)cc3)n2)s1	5.30 to 6.00	> 7.00
CCN(CCC#N)S(=O)(=O)c1ccc(-c2ccnc(Nc3cccc(C(C)O)c3)n2)s1 (stereo not shown)	5.30 to 6.00	> 7.00
CC(O)c1cccc(Nc2nccc(-c3ccc(S(=O)(=O)Cc4ccccc4)s3)n2)c1 (stereo not shown)		> 7.00
CCC(=O)Nc1ccc(-c2ccnc(Nc3cccc(C)c3)n2)s1	5.30 to 6.00	> 7.00
CC(O)c1cccc(Nc2nccc(-c3ccc(-c4ccncc4)s3)n2)c1 (stereo not shown)		> 7.00
